# Patent US7419780B2, “Methods and assays for screening protein targets” (The Trustees of Columbia University in the City of New York, priority 2000, dated 2008)
# Tests used:
# Assay type in all cases: cell-based, S. cerevisiae
# Conditions in all cases: 1 uM small molecule, difference to activity without small molecule, average of two trials
# [1] = target: T1, LexA (GSG)2eDHFR / B42 (GSG)rGR2 (UniProt P06536+P0ABQ4, C656G/F620S); assay: β-galactosidase activity assay, strain V501Y
# T1 construct: rat Glucocorticoid Receptor (aa 524-795) with point mutations; expressed in transfected cells; host or cells: S. cerevisiae FY250
# T1 sequence (P0ABQ4 1-159): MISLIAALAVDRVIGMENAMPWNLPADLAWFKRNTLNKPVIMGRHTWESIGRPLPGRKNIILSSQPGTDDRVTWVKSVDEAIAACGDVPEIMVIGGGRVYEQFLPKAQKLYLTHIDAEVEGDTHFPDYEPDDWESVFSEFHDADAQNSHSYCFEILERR
# T1 sequence (P06536 524-795 F620S/C656G limits assumed): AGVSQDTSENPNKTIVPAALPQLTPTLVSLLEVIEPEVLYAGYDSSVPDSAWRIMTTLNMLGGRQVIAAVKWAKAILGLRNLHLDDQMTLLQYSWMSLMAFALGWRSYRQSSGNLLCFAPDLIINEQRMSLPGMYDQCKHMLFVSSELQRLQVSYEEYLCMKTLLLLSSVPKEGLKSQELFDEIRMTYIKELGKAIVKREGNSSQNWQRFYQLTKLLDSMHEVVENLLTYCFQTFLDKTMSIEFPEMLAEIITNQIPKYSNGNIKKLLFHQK
# Excerpt: (§1) Table III explains the components of each strain. Each strain was constructed from the parent yeast strain FY250 and also contains the pMW106 plasmid, which has the LacZ reporter gene that is turned on only in when the LexA DNA binding domain and the B42 activation are brought in tot he vicinity of each other. We use several different strains because we use DHFR from two different species, mDHFR is from murine, while eDHFR is from E. coli. We are asl oable to switch the small moleculebinding domains. For example, the strain containing LexA-eDHFR with B42-rGH2 is a different strain and behaves differently from the strain containing LexA-rGR2 with B42-eDHFR. We also put in short 6 amino acid linkers between the two domains of our protein chimeras and thus these are different strain as well.
# (§2) The results in Table IV are averages of two separate trials. Each strain was examined with small molecules and without small molecules. The absolute activity is given as the β-galactisidase activity […]. The average β-galactosidse activity for a strain without small molecule (i.e. the negative control) was about 100 β-galactosidase units.
# [2] = target: T2, LexA (GSG)2rGR2 / B42 (GSG)2eDHFR (UniProt P06536+P0ABQ4, C656G/F620S); assay: β-galactosidase activity assay, strain V510Y
# T2 construct: rat Glucocorticoid Receptor (aa 524-795) with point mutations; expressed in transfected cells; host or cells: S. cerevisiae FY250
# T2 sequence (P06536 524-795 F620S/C656G limits assumed): T1 sequence (P06536 524-795 F620S/C656G limits assumed)
# T2 sequence (P0ABQ4 1-159): T1 sequence (P0ABQ4 1-159)
# Excerpt: as §1, §2
# LexA rGR2 / B42 mDHFR = target: T3, LexA rGR2 / B42 mDHFR (UniProt P00375+P06536, C656G/F620S); assay: β-galactosidase activity assay, strain V507Y
# T3 construct: rat Glucocorticoid Receptor (aa 524-795) with point mutations; expressed in transfected cells; host or cells: S. cerevisiae FY250
# T3 sequence (P06536 524-795 F620S/C656G limits assumed): T1 sequence (P06536 524-795 F620S/C656G limits assumed)
# T3 sequence (P00375 1-187): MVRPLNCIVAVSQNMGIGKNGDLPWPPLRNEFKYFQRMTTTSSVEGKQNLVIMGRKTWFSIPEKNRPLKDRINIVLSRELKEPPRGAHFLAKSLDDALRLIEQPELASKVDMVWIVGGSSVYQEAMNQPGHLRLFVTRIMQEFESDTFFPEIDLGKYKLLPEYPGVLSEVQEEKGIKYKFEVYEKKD
# Excerpt: as §1, §2
# [3] = target: T4, LexA (GSG)2eDHFR / B42 rGR2 (UniProt P06536+P0ABQ4, C656G/F620S); assay: β-galactosidase activity assay, strain V498Y
# T4 construct: rat Glucocorticoid Receptor (aa 524-795) with point mutations; expressed in transfected cells; host or cells: S. cerevisiae FY250
# T4 sequence (P0ABQ4 1-159): T1 sequence (P0ABQ4 1-159)
# T4 sequence (P06536 524-795 F620S/C656G limits assumed): T1 sequence (P06536 524-795 F620S/C656G limits assumed)
# Excerpt: as §1, §2
# [4] = target: T5, LexA mDHFR / B42 (GSG)rGR2 (UniProt P00375+P06536, C656G/F620S); assay: β-galactosidase activity assay, strain V497Y
# T5 construct: rat Glucocorticoid Receptor (aa 524-795) with point mutations; expressed in transfected cells; host or cells: S. cerevisiae FY250
# T5 sequence (P00375 1-187): T3 sequence (P00375 1-187)
# T5 sequence (P06536 524-795 F620S/C656G limits assumed): T1 sequence (P06536 524-795 F620S/C656G limits assumed)
# Excerpt: as §1, §2
# LexA rGR2 / B42 eDHFR = target: T6, LexA rGR2 / B42 eDHFR (UniProt P06536+P0ABQ4, C656G/F620S); assay: β-galactosidase activity assay, strain V505Y
# T6 construct: rat Glucocorticoid Receptor (aa 524-795) with point mutations; expressed in transfected cells; host or cells: S. cerevisiae FY250
# T6 sequence (P06536 524-795 F620S/C656G limits assumed): T1 sequence (P06536 524-795 F620S/C656G limits assumed)
# T6 sequence (P0ABQ4 1-159): T1 sequence (P0ABQ4 1-159)
# Excerpt: as §1, §2
# [5] = target: T7, LexA (GSG)2mDHFR / B42 (GSG)rGR2 (UniProt P00375+P06536, C656G/F620S); assay: β-galactosidase activity assay, strain V504Y
# T7 construct: rat Glucocorticoid Receptor (aa 524-795) with point mutations; expressed in transfected cells; host or cells: S. cerevisiae FY250
# T7 sequence (P00375 1-187): T3 sequence (P00375 1-187)
# T7 sequence (P06536 524-795 F620S/C656G limits assumed): T1 sequence (P06536 524-795 F620S/C656G limits assumed)
# Excerpt: as §1, §2
# [6] = target: T8, LexA (GSG)2rGR2 / B42 mDHFR (UniProt P00375+P06536, C656G/F620S); assay: β-galactosidase activity assay, strain V508Y
# T8 construct: expressed in transfected cells; host or cells: S. cerevisiae FY250 with pMW106 lacZ reporter
# T8 sequence (P06536 524-795 F620S/C656G limits assumed): T1 sequence (P06536 524-795 F620S/C656G limits assumed)
# T8 sequence (P00375 1-187): T3 sequence (P00375 1-187)
# Excerpt: as §1, §2
# [7] = target: T9, LexA mDHFR / B42 gly6rGR2 (UniProt P00375+P06536, C656G/F620S); assay: β-galactosidase activity assay, strain V496Y
# T9 construct: rat Glucocorticoid Receptor (aa 524-795) with point mutations; expressed in transfected cells; host or cells: S. cerevisiae FY250
# T9 sequence (P00375 1-187): T3 sequence (P00375 1-187)
# T9 sequence (P06536 524-795 F620S/C656G limits assumed): T1 sequence (P06536 524-795 F620S/C656G limits assumed)
# Excerpt: as §1, §2
# [8] = target: T10, LexA eDHFR / B42 gly6rGR2 (UniProt P06536+P0ABQ4, C656G/F620S); assay: β-galactosidase activity assay, strain V375Y
# T10 construct: rat Glucocorticoid Receptor (aa 524-795) with point mutations; expressed in transfected cells; host or cells: S. cerevisiae FY250
# T10 sequence (P0ABQ4 1-159): T1 sequence (P0ABQ4 1-159)
# T10 sequence (P06536 524-795 F620S/C656G limits assumed): T1 sequence (P06536 524-795 F620S/C656G limits assumed)
# Excerpt: as §1, §2
smiles,measurement,setting,value
C[C@@H]1C[C@H]2C3CCC4=CC(=O)C=C[C@]4(C)[C@@]3(F)[C@@H](O)C[C@]2(C)[C@@]1(O)C(=O)NCCSCCCCCCCCSCC[C@H](NC(=O)c1ccc(N(C)Cc2cnc3nc(N)nc(N)c3n2)cc1)C(=O)O (stereo partly shown) [D8M],B-gal activity,[1],6660 β-galactosidase units
same,B-gal activity,[2],3163 β-galactosidase units
same,B-gal activity,LexA rGR2 / B42 mDHFR,−6 β-galactosidase units
same,B-gal activity,[3],5442 β-galactosidase units
same,B-gal activity,[4],24 β-galactosidase units
same,B-gal activity,LexA rGR2 / B42 eDHFR,2532 β-galactosidase units
same,B-gal activity,[5],30 β-galactosidase units
same,B-gal activity,[6],−5 β-galactosidase units
same,B-gal activity,[7],−27 β-galactosidase units
same,B-gal activity,[8],5210 β-galactosidase units
